ChEMBL document CHEMBL1201862, “PubChem BioAssay data set” (2004)
Active and inactive are the calls of the source.

How the values were obtained:
[1] = target: T1, DNA repair protein RAD52 homolog (Homo sapiens, UniProt P43351); type: functional, biochemical
T1 sequence (P43351 whole entry): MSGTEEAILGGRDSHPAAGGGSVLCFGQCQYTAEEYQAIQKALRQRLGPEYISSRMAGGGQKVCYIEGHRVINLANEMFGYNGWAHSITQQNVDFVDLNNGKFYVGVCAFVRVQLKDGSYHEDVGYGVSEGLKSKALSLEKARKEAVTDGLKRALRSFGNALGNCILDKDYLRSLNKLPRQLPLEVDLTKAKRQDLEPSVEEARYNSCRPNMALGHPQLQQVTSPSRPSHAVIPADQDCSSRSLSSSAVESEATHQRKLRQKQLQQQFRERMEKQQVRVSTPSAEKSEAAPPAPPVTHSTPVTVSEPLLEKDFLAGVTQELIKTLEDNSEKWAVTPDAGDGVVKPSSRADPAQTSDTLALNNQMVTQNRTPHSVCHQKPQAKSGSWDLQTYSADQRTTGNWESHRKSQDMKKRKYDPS

[2] = target: T2, Calpain-2 catalytic subunit (Sus scrofa, UniProt P43367); experiment: pig calpain II inhibitor potency, dose response, biochemical, fluorogenic peptide substrate (AID 1420); type: functional
T2 sequence (P43367 whole entry): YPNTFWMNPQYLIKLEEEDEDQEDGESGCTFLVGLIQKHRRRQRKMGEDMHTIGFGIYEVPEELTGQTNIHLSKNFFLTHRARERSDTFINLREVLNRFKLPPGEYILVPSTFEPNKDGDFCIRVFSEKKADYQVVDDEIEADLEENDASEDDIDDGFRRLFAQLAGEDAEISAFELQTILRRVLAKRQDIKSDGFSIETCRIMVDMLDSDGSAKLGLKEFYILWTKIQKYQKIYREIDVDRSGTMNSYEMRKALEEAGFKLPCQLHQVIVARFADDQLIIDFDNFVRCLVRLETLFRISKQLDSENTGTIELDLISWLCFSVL

[3] = tested on: Streptococcus sp. 'group A'; experiment: growth inhibition of control SK(-) GAS strain, dose response, counter-screen for streptokinase expression inhibitor project, luminescence, kanamycin, BacTiterGlo, confirmation (AID 1900); type: functional, organism-based
Streptokinase A = target: T3, Streptokinase A (Streptococcus pyogenes serotype M1, UniProt P10520); experiment: S. pyogenes streptokinase expression inhibitors, potency, dose response, plasminogen activation absorbance, OD405 (AID 1914); type: functional, Streptococcus pyogenes M1 GAS;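 note: secreted streptokinase activity via plasminogen activation per viability signal from cell pellet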
T3 sequence (P10520 whole entry): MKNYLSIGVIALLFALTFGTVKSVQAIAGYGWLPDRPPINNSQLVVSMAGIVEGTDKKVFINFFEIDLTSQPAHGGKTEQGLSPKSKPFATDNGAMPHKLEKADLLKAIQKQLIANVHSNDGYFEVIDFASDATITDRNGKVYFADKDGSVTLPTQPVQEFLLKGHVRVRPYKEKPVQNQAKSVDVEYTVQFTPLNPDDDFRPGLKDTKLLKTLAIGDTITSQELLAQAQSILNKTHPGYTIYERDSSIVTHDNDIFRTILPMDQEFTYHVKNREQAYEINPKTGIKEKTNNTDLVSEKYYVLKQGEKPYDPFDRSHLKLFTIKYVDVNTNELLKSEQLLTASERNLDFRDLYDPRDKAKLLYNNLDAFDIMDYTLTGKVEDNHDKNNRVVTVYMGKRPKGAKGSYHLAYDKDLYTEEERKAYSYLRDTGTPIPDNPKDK

[4] = target: Induced myeloid leukemia cell differentiation protein Mcl-1 (Homo sapiens, UniProt Q07820); type: functional
Streptococcus = experiment: Group A Streptococcus viability loss, dose response, counter-screen for streptokinase expression inhibitor project, luminescence, BacTiterGlo (AID 1915); type: functional, organism-based;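 note: potency for reduction of bacterial viability or growth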
Nonstructural protein 1 = Nonstructural protein 1 (Influenza A virus, UniProt Q194T2); type: functional, Influenza A virus (A/California/07/2009(H1N1))
[5] = target: T4, Carboxy-terminal domain RNA polymerase II polypeptide A small phosphatase 1 (Homo sapiens, UniProt Q9GZU7); experiment: inhibitors of CTDSP1, concentration-response testing, biochemical assay, absorbance-based, actives from ultra-high-throughput screening (AID 540297); type: functional
T4 sequence (Q9GZU7 whole entry): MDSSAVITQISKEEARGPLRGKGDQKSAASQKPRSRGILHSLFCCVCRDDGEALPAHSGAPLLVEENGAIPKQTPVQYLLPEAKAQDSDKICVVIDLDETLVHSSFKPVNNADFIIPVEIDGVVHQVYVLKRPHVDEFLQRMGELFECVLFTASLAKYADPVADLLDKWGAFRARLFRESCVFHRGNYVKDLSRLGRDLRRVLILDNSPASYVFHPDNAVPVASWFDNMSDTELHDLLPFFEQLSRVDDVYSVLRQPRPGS

[6] = THP-1 cell cytotoxicity, dose response, cytotoxicity control for non-replicating M. tuberculosis project (AID 489025); type: functional
cells = type: functional
[7] = target: T5, RNA-binding protein pos-1 (Caenorhabditis elegans, UniProt G5EF15); experiment: inhibitors of POS-1/mex-3 RNA binding, dose response, biochemical, fluorescence polarization (AID 1964);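 note: purified POS-1 fused to maltose binding protein made in E. coli; potency of compounds blocking POS-1 binding to fluorescent RNA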
T5 sequence (G5EF15 whole entry): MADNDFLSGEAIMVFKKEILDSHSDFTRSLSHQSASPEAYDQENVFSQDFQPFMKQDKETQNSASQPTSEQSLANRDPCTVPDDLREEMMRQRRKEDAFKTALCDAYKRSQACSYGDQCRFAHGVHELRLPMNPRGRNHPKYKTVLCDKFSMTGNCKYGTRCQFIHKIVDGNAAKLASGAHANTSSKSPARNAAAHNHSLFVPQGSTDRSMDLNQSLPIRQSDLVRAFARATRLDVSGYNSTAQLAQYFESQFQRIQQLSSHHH

[8] = target: T6, Zinc finger protein mex-5 (Caenorhabditis elegans, UniProt Q9XUB2); experiment: MEX-5/TCR-2 RNA interaction inhibitors, dose response, biochemical, C. elegans, fluorescence polarization (AID 1960)
T6 sequence (Q9XUB2 whole entry): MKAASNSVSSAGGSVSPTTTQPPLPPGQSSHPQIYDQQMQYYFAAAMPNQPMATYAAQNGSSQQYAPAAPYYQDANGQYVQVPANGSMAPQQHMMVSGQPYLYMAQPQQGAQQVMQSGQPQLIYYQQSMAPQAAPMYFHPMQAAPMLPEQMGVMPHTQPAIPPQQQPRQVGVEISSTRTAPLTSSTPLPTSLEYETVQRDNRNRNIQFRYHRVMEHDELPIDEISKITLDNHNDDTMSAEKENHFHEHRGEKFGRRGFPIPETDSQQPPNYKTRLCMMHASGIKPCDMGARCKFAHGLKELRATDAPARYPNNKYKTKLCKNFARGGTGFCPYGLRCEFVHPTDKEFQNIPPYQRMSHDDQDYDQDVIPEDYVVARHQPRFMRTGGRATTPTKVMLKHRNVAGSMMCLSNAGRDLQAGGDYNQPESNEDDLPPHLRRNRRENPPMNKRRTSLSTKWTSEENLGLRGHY

[9] = P. falciparum 3D7-ScDHODH growth inhibitors, dose response, SYBR Green, dry powder samples (AID 1159570); type: functional, cell-based;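 note: parasite growth measured after 72 hours of compound exposure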
[10] = P. falciparum Dd2 growth inhibitors, dose response, SYBR Green, cherry-picked samples (AID 1159567); type: functional, cell-based
[11] = P. falciparum Dd2 growth inhibitors, dose response, SYBR Green, dry powder samples (AID 1159566); type: functional, cell-based;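 note: potency for growth inhibition with lower SYBR green DNA signal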
[12] = P. falciparum ATP4 D1247Y mutant growth inhibitors, dose response, NITD609-resistant line, SYBR Green, dry powder (AID 1159571); type: functional, cell-based;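 note: parasites synchronized at ring stage by sorbitol before testing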
[13] = target: FAD-linked sulfhydryl oxidase ALR (Homo sapiens, UniProt P55789); experiment: inhibitors of human ALR sulfhydryl oxidase, dose response, biochemical, H2O2 detection, luminescence, cherry-pick (AID 493248)
[14] = target: T7, Polyadenylate-binding protein 1 (Homo sapiens, UniProt P11940); experiment: PABP1 MLLE–PAM2 interaction inhibitors, dose response, miRNA deadenylation inhibitor project, biochemical, fluorescence polarization, Cy5-PAM2 peptide, secondary (AID 602260); type: functional; conditions: read-out: IC50_Mean
[15] = target: T7, Polyadenylate-binding protein 1; experiment: PABP1 MLLE–PAM2 binding inhibitor potency, dose response, biochemical, fluorescence polarization, FITC-PAM2 peptide (AID 602259); type: functional; conditions: read-out: IC50_Mean
[16] = target: T8, Rac GTPase-activating protein 1 (Homo sapiens, UniProt Q9H0H5); experiment: MgcRacGAP GTPase-activating activity inhibitors, confirmation, biochemical, ADP Hunter fluorescence, primary and confirmatory (AID 624330); type: functional
T8 sequence (Q9H0H5 whole entry): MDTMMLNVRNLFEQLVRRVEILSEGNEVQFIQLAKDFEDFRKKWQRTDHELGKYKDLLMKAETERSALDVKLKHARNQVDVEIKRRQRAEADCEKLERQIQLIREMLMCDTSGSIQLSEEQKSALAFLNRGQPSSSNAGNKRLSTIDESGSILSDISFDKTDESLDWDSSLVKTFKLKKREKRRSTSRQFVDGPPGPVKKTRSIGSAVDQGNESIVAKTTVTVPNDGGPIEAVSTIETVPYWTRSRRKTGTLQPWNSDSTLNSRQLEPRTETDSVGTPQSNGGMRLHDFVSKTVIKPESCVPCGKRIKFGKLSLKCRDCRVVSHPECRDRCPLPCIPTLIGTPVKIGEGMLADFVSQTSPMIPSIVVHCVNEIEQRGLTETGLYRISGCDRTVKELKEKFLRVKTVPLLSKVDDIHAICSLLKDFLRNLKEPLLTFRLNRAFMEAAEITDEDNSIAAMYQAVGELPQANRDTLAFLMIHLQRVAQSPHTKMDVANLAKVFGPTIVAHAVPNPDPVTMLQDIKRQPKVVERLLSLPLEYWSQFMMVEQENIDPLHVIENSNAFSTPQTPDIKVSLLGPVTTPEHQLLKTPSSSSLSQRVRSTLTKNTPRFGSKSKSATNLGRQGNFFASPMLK

H9c2 = experiment: cells; type: functional, cell-based; conditions: Rattus norvegicus, H9c2, Myocardium;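 note: confirmatory concentration-response retest of ultra-high-throughput screening hits for modulation of myocardial damage; cell death induced by hydrogen peroxide oxidative stress; compound pretreatment for 60 min then peroxide exposure for 2 h; potency is for protecting the cells against peroxide damage rather than for killing them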

Induced myeloid leukemia cell differentiation protein Mcl-1, sequence (Q07820 whole entry): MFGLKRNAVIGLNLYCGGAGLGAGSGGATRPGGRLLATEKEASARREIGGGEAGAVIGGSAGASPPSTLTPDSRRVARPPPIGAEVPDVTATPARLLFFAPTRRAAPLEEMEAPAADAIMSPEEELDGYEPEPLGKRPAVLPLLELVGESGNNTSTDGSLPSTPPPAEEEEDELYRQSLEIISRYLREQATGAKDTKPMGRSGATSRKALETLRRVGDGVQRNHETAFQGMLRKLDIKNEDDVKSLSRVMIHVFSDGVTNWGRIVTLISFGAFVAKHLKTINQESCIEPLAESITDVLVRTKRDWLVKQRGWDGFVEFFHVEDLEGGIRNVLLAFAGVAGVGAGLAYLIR
T7 sequence (P11940 whole entry): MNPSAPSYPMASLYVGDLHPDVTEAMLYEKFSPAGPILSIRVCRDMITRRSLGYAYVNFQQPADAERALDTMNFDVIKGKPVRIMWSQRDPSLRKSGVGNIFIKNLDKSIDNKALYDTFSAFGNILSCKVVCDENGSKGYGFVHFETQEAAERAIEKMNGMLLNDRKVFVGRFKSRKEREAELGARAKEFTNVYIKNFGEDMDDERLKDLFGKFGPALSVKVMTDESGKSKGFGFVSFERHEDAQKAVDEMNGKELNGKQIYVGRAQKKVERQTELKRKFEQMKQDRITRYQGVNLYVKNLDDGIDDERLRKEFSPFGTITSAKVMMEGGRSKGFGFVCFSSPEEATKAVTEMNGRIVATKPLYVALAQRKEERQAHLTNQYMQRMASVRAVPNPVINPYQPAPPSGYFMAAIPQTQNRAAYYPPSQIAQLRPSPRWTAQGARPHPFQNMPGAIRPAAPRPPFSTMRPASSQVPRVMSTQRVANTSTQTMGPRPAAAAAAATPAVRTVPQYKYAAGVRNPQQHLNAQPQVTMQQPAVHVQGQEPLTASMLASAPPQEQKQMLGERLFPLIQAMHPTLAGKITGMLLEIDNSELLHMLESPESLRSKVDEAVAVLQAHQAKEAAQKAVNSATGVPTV
Nonstructural protein 1, sequence (Q194T2 whole entry, the tested form may be a part): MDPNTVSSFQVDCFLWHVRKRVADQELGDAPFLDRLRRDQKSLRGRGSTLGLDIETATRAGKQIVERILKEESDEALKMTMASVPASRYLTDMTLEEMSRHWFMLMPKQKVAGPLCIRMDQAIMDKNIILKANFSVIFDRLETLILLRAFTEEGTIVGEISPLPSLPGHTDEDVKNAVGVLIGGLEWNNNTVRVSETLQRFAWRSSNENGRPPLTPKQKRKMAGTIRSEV
FAD-linked sulfhydryl oxidase ALR, sequence (P55789 whole entry): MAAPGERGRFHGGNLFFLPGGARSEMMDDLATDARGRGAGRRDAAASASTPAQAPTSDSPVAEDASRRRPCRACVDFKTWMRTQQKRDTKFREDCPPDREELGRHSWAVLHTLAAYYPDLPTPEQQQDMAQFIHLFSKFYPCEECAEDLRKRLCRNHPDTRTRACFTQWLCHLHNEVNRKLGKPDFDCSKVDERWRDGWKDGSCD

SMILES: COc1cc2c3cc1Oc1c(OC)c(OC)cc4c1[C@H](Cc1ccc(cc1)Oc1cc(ccc1O)C[C@H]3N(C)CC2)N(C)CC4 [AROMOLINE]
- AC50 [1]: 9290 nM (active)

SMILES: CC(C)/N=C(\S)NN=C1CCCCCCCCCCC1
- IC50 [2]: 1040 nM (not active)

SMILES: CC1Oc2cc3c(-c4c(O)cc(O)c5c(O)c6c(cc45)OC(C)C(C)C6=O)c(O)cc(O)c3c(O)c2C(=O)C1C (stereo unspecified)
- EC50 [3]: 324 nM (active)
- EC50 (Streptokinase A): 1740 nM (active)
- IC50 [4]: 2150 nM (active)
- EC50 (Streptococcus): 967 nM (active)
- IC50 (Nonstructural protein 1): 29400 nM (active)

SMILES: O=C1c2cccc3cccc(c23)C(=O)N1CCN1CCN(C(=S)Nc2ccc(Cl)cc2)CC1
- IC50 [2]: 22700 nM (not active)

SMILES: O=C(CSc1nnc(COc2ccccc2Cl)o1)NC(=O)NCc1ccco1
- IC50 [4]: 6900 nM (active)
- IC50 [5]: 5930 nM (active)

SMILES: O=[N+]([O-])c1cc(Br)c(O)c(/C=N/Nc2nc3ccccc3s2)c1
- EC50 [3]: 1590 nM (active)
- IC50 [4]: > 54000 nM (active)
- EC50 (Streptococcus): 1690 nM (active)

SMILES: CCN(CC)CCN(C(=O)c1ccc2c(c1)CCCC2)c1nc2c(OC)cccc2s1
- AC50 [1]: 24300 nM (active)

SMILES: N#Cc1ccc(-c2ccc(OCC(=O)Nc3cccnc3)cc2)cc1
- CC50 [6]: 10800 nM (active)
- IC50 (cells): 1630 nM (active)

SMILES: O=C(OCC(=O)N1c2ccccc2Sc2ccccc21)c1ccc[n+]([O-])c1
- IC50 [2]: 1660 nM (not active)

SMILES: Cc1cccc(Oc2ccc(Cl)cc2N)c1
- IC50 [2]: > 50000 nM (not active)

SMILES: CCn1c(C)nc2cc(N)ccc21
- EC50 [7]: 261000 nM (active)
- EC50 [8]: 4590 nM (active)
- AC50 [1]: 5490 nM (active)

SMILES: C[C@H](CO)N1C[C@H](C)[C@@H](CN(C)C(=O)Nc2cccc3ccccc23)Oc2ccc(NC(=O)Cc3cn(C)c4ccccc34)cc2C1=O
- AC50 [9]: 2160 nM (active)
- AC50 [10]: 2340 nM (active)
- AC50 [11]: 1380 nM (active)
- AC50 [12]: 1560 nM (active)

SMILES: Oc1ccc(/C=N/n2cc(-c3ccccc3)nc2S)cc1
- IC50 [4]: 16500 nM (active)
- AC50 [13]: 860 nM (active)
- IC50 [14]: > 66000 nM (inactive)
- IC50 [15]: > 66000 nM (inactive)
- IC50 [16]: 101000 nM (active)

SMILES: C[C@@H]1CN([C@H](C)CO)S(=O)(=O)c2ccc(C#Cc3ccccc3F)cc2O[C@H]1CN(C)C(=O)c1ccc2c(c1)OCO2
- IC50 (H9c2): > 79000 nM (inactive)
- AC50 [9]: 1610 nM (active)
- AC50 [10]: 1600 nM (active)
- AC50 [11]: 1180 nM (active)
- AC50 [12]: 925 nM (active)

SMILES: CCN(CC)CCN(C(=O)c1ccc(N2C(=O)CCC2=O)cc1)c1nc2cc3c(cc2s1)OCCO3
- AC50 [1]: 21900 nM (active)

SMILES: CCN(CC)c1ccc(/C=N/N2CCN(Cc3ccccc3)CC2)cc1
- IC50 [4]: 11500 nM (not active)
- IC50 [16]: 78700 nM (active)

SMILES: O=C(Nc1ccccc1)N1CCCCN2[C@H](CO)[C@H](c3ccc(C#Cc4cccnc4)cc3)[C@@H]2C1
- AC50 [9]: 150 nM (active)
- AC50 [10]: 676 nM (active)
- AC50 [11]: 165 nM (active)
- AC50 [12]: 157 nM (active)

SMILES: C[C@@H]1CN([C@@H](C)CO)C(=O)c2cccc(NC(=O)Nc3ccccc3)c2O[C@@H]1CN(C)C(=O)Nc1ccc(F)cc1
- AC50 [9]: 650 nM (active)
- AC50 [10]: 392 nM (active)
- AC50 [11]: 350 nM (active)
- AC50 [12]: 372 nM (active)
